Data set [1] has as its system MEK/ERK signaling pathway. The data set can be described thus: Western blot analysis of MEK/ERK signaling, SW480. The format is cell-based. To be noted: SW480, 24 and 48 h. The protocol:
(§1) Cells were plated in a 100 mm cell culture dish and incubated under standard conditions (37 °C under a humidified atmosphere containing 5% CO2) in RPMI-1640 media with 10% fetal bovine serum, 100 μ/mL penicillin, and 100 μ/mL streptomycin (Welgene, Korea). […] After treatment of 24, 48, and 72 h, the cells were lysed using protein extraction solution PRO-PREPTM (iNtRON Biotechnology, Korea) containing a protease inhibitor cocktail for 30 min at 4 °C. After this, the cells were centrifuged at 15,115 x g for 30 min. Protein content in the supernatant was measured with Bradford protein assay using bovine serum albumin (BSA). The protein was separated by 10% SDS-PAGE and transferred onto an immobilon-P membrane (Millipore, USA). Membrane was blocked in ProNA Protein-free 5X general or phospho-block solution (TransLab, Korea) for 1 h at room temperature. The membrane was incubated with primary antibodies against phosphorylated (p)-MEK1/2 (Ser217/221), total (t)-MEK1/2, p-ERK1/2 (Thr202/Tyr204), and t-ERK1/2 (Cell Signaling Technology, USA) at 4 °C overnight, washed with 1X PBS containing 0.1% Tween (PBST) three times, and incubated with anti-IgG secondary antibodies (Santa Cruz Biotechnology, USA) in PBST for 1 h. The transferred protein band was visualized with EzWestLumi plus (ATTO corporation, Japan). Probing for ß-acitn was used as a loading control.

In a further data set the test system is SW480. The data set can be described thus: Cell proliferation assay (CCK-8), SW480. The format is cell-based. The settings on record: SW480 (colon, KRAS G12V), 72 h, CCK-8, triplicate. The protocol:
(§2) Cells (2 × 10^3/well, 100 μL final volume per well) for HCT116 and NCI-H460, 5 × 10^3 cells/well for SW480 and NCI-H23, and 1 × 10^4 cells/well for AsPC-1 cell lines were used in this assay (Table 4). All cells were allowed to attach for 24 h after plating, and the cells were treated with fresh media the next day. […] After the 72 h incubation, cell counting kit-8 (CCK-8) solution (10 μL/well) was added, and cells were incubated for a further 4 h at 37 °C CO2 incubator. The optical density (OD) of each well at 450 nm was measured by using the Microplate reader (BioTek, USA). Experiments were performed at least three times with representative data presented.

A further data set in a line: Solubility in water. The format is physicochemical.
In another data set the test system is AsPC-1. The data set can be described thus: Cell proliferation assay (CCK-8), AsPC-1. The format is cell-based, human. To be noted: AsPC-1 (pancreas, KRAS G12D), 72 h, CCK-8, triplicate. Here is the method:
as §2

Data set [2] concerns AsPC-1 pancreatic cancer cells (xenograft). The data set can be described thus: Tumor xenograft model, AsPC-1, nude mice. The settings on record: abdominal cavity. The format is in vivo. The protocol: Five were deployed per group.
The cells used in the cancer animal model used human-specific pancreatic cancer cell liquor AsPC-1, which was defrosted more than 2 weeks before the animal model was created to obtain stable cell alcohol conditions, and were incubated three times. The growth medium used for cell culture was used by adding 10% fetal bovine serum and 1% penicillin/streptomycin to the RPMI-1640 medium used for AsPC-1 cell lines. On the day of the production of the cancer animal model, AsPC-1 cell line was removed from the cell culture flask by 0.25% Trypsin/EDTA and washed twice with PBS. The cell line was finally harried to HBSS + matrigel (1:1). Since the number of cells to be used in the experiment was 1 × 10^6/head, the finally disheveled cell concentration was 1 × 10^7/mL. It was stored in ice until the test was used. In the case of cell transplantation, 100 μL was transplanted. The separation was performed when the average volume of the tumor had grown to more than 100 mm^3. A random separation of groups was conducted to ensure that the average tumor volume was equal in the day of separation, and the separation of groups was carried out into a total of three groups.

The test system of another data set is KRAS wild-type. The data set can be described thus: [α-32P] GTP binding assay, KRAS wild-type. The format is biochemical, human. The settings on record: H-REV107 peptide, 30 °C. Here is the method: His-tagged human KRAS wild-type and mutants (G12V, G12D, G12C, G13D, and Q61H) and H-REV107 were transformed into Escherichia coli BL21 (DE3) cells. Each individual colony was inoculated into […] of Luria-Bertani (LB) medium enriched with 10 μg/mL kanamycin, after which the bacteria were grown for 16 h at 37 °C. These cells were then added to 2 L of LB containing antibiotics and grown at 37 °C until the OD600 reached 0.5–0.6. The expression of the proteins was induced by 0.5 mM isopropyl-thio-β-D-1-thiogalactopyranoside (IPTG) at 25 °C, after which the bacterial cells were harvested by centrifugation at 3830 × g for 25 min at 4 °C, then disrupted by sonication in lysis buffer (50 mM HEPES (pH 7.5), 100 mM NaCl, and 2 mM MgCl2). The supernatant was subsequently incubated with Ni-NTA resin (BioRad) for 10 min. After washing, the bound protein was eluted from the beads with elution buffer (50 mM HEPES (pH 7.5), 500 mM NaCl, 2 mM MgCl2, and 400 mM imidazole). The eluted protein was further purified by fast protein liquid chromatography (FPLC) using a Superdex 200 10/300 GL column equilibrated with 50 mM HEPES (pH 7.5), 100 mM NaCl, and 2 mM MgCl2. The purity and identity of the proteins were determined by 15% SDS-PAGE. […]
In addition, the protein complex was incubated with [α-^32P] […] Protein-bound radioactive nucleotide was quantified by liquid scintillation counting.

Another data set deals with HCT116. The data set can be described thus: Cell proliferation assay (CCK-8), HCT116. To be noted: HCT116 (colon, KRAS G13D), 72 h, CCK-8, triplicate. The format is cell-based. Here is the method: as §2
The test system of data set [3] is MEK/ERK signaling pathway. The data set can be described thus: Western blot analysis of MEK/ERK signaling, AsPC-1. The format is cell-based, human. To be noted: AsPC-1, 24 and 48 h. Here is the method:
as §1

In another data set the test system is NCI-H460. The data set can be described thus: Cell proliferation assay (CCK-8), NCI-H460. The format is cell-based. The settings on record: NCI-H460 (lung, KRAS Q61H), 72 h, CCK-8, triplicate. The protocol:
as §2

For the next data set, the system named is NCI-H23. The data set can be described thus: Cell proliferation assay (CCK-8), NCI-H23. The format is cell-based. The settings on record: NCI-H23 (lung, KRAS G12C), 72 h, CCK-8, triplicate. The protocol:
as §2

The test system of a further data set is A549. The data set can be described thus: MTT, wild-type KRAS A549 cell line. The format is cell-based. To be noted: A549, compared with other tumor cell lines.

Experimental findings from paper PMC7352977 (Cancers, 2020) are described below.

Broadly, the GI50 is the concentration at which growth is held to half of that of the control.

For the sequence LYDVAGSDKY [H-REV107 peptide], the “expression level of total MEK/ERK protein (in words)” value in data set [1] and in [3] was “little effect” in each case. Also, the “phosphorylation levels of MEK/ERK (in words)” value in data set [1] is “decrease the phosphorylation levels of MEK/ERK”. The figures for the GI50 in the data set with SW480 and in the data set on AsPC-1 were 358 µM and 417 µM, respectively. In addition, the “solubility in water (in words)” value in the data set “Solubility in water” was “highly soluble”. The “growth rate of tumors, high concentration group (in words)” value in [2] (200 mg/kg) was “lowest growth rate”. In data set [2] (H-REV107 peptide experimental group), the “growth rate of tumors compared to Vehicle (in words)” value is “lower growth rate of tumors”. Further, the “tumor volume compared to Vehicle (in words)” value in data set [2] (all doses (50 and 200 mg/kg), day 3 to day 32 after inoculation) is recorded as “decrease”. The “GTP binding activity to KRAS wild-type, decreased to” value in the data set on KRAS wild-type is listed as 12%. In addition, the “GI50 (in words)” value in the data set with HCT116, in the data set with NCI-H460 and in the data set with NCI-H23 was “millimolar ranges” in each case. Also, in [3], the “phosphorylation levels of MEK/ERK, tendency to decrease (in words)” value is recorded as “little”. Further, in the data set with A549, the “effect on proliferation of wild-type KRAS A549 cell line (in words)” value was “higher concentration state of H-REV107 peptide had an effect on the proliferation”.
